From EP0196574A2, “4,4'-Diaminodiphenyl compounds, process for their preparation and their use” (HOECHST AKTIENGESELLSCHAFT, priority 1985, dated 1986)

Tested on: Salmonella typhimurium (Stämme TA 98, TA 100, TA 1535, TA 1537, TA 1538)
Experiment: Ames mutagenicity test
Type: cell-based
Details: strains TA 98, TA 100, TA 1535, TA 1537, TA 1538, ohne und in Gegenwart von S-9-Mix; for Ames-Test: table of further examples
Text: Die folgenden Beispiele sollen die Erfindung näher beschreiben. Der Mutagenitätstest wurde nach Ames mit Salmonella typhimurium (Stämme TA 98, TA 100, TA 1535, TA 1537, TA 1538) ohne und in Gegenwart von S-9-Mix durchgeführt (B.N. Ames et al., Mut. Res. Vol. 31, S. 347 - 364 (1975)).

| SMILES | Ames-Test | Mutagenitätstest nach Ames |
| --- | --- | --- |
| CCCCc1cc(-c2ccc(N)c(CCCC)c2)ccc1N [Beispiel 5] | negativ | – |
| CC(C)COc1cc(-c2ccc(N)c(OCC(C)C)c2)ccc1N [Beispiel 2, 3,3'-Di-isobutoxybenzidin] | – | negativ |
| CCC(C)Oc1cc(-c2ccc(N)c(OC(C)CC)c2)ccc1N (stereo not shown) [Beispiel 10] | negativ | – |
| CCC(C)c1cc(-c2ccc(N)c(C(C)CC)c2)ccc1N (stereo not shown) [Beispiel 7] | negativ | – |
| COCCOc1cc(-c2ccc(N)c(OCCOC)c2)ccc1N [Beispiel 3, 3,3'-Di-(2-methoxyethoxy)-benzidin] | – | negativ |
| CC(C)c1cc(-c2ccc(N)c(C(C)C)c2)ccc1N [Beispiel 1, 3,3-Diisopropyl-benzidin-dichlorhydrat] | – | negativ |
| CCCc1cc(-c2ccc(N)c(CCC)c2)ccc1N [Beispiel 4] | negativ | – |
| CC(C)Cc1cc(-c2ccc(N)c(CC(C)C)c2)ccc1N [Beispiel 6] | negativ | – |
| CC(C)Oc1cc(-c2ccc(N)c(OC(C)C)c2)ccc1N [Beispiel 9] | negativ | – |
| CCCOc1cc(-c2ccc(N)c(OCCC)c2)ccc1N [Beispiel 8] | negativ | – |
